Results reported in article PMC3914206.

Legend:
panel of 442 kinases [1] = molecular target: T1, panel of 442 kinases (Homo sapiens, UniProt O94806); assay type: binding; set-up: KINOMEscan: ABL1(F317L)-phosphorylated / KINOMEscan: ABL1(H396P)-nonphosphorylated / KINOMEscan: ABL1(H396P)-phosphorylated / KINOMEscan: ABL1(M351T)-phosphorylated / KINOMEscan: ABL1(T315I)-phosphorylated / KINOMEscan: ABL1-nonphosphorylated / KINOMEscan: ABL1-phosphorylated / KINOMEscan: ACVR2A / KINOMEscan: ACVR2B / KINOMEscan: ADCK3 / KINOMEscan: ADCK4 / KINOMEscan: AKT1 / KINOMEscan: AKT3 / KINOMEscan: ALK / KINOMEscan: ARK5 / KINOMEscan: AURKA / KINOMEscan: AURKC / KINOMEscan: BIKE / KINOMEscan: BMPR1A / KINOMEscan: BMPR1B / KINOMEscan: BMX / KINOMEscan: BRK / KINOMEscan: BRSK1 / KINOMEscan: BRSK2 / KINOMEscan: CAMK1 / KINOMEscan: CAMK1D / KINOMEscan: CAMK1G / KINOMEscan: CAMK2A / KINOMEscan: CAMK2B / KINOMEscan: AAK1 / KINOMEscan: CAMK2D / KINOMEscan: CAMK2G / KINOMEscan: ABL1(F317I)-nonphosphorylated / KINOMEscan: ABL1(F317I)-phosphorylated / KINOMEscan: ABL1(F317L)-nonphosphorylated: unit: % Ctrl; conditions: Compound Concentration 10 µM
T1 construct: purchased KINOMEscan
T1 sequence (O94806 1-890): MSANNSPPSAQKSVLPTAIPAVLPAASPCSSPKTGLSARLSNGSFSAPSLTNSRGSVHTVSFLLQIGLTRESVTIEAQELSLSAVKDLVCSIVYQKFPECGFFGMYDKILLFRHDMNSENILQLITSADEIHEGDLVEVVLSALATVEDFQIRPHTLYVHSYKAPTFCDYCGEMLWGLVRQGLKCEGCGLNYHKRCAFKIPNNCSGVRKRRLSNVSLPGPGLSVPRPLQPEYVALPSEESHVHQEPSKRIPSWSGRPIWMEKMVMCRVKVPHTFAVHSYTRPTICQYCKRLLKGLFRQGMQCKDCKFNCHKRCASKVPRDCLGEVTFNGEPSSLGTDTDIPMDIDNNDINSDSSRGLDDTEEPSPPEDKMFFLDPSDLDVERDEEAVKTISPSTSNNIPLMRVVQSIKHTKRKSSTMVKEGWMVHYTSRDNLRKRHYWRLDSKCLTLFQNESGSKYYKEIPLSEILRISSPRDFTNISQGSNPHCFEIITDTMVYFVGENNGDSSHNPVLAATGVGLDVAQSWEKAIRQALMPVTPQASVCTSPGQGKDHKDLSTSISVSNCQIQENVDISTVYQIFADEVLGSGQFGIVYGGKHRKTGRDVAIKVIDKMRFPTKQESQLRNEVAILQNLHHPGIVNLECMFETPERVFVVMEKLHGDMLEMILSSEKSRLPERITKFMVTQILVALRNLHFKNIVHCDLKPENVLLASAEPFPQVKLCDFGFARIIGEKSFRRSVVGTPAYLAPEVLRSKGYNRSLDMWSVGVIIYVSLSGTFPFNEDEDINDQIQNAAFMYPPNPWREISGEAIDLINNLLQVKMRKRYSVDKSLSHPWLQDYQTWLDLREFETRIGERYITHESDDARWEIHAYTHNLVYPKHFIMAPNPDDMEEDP
Excerpt: (§1) We assessed the selectivity of members of this scaffold using the KINOMEscan methodology across a near comprehensive panel of 442 kinases [[18,27]].

panel of 442 kinases [2] = molecular target: T2, panel of 442 kinases (Homo sapiens, UniProt Q96D53); assay type: binding; set-up: KINOMEscan: ABL1(F317L)-phosphorylated / KINOMEscan: ABL1(H396P)-nonphosphorylated / KINOMEscan: ABL1(H396P)-phosphorylated / KINOMEscan: ABL1(M351T)-phosphorylated / KINOMEscan: ABL1(T315I)-phosphorylated / KINOMEscan: ABL1-nonphosphorylated / KINOMEscan: ABL1-phosphorylated / KINOMEscan: ACVR2A / KINOMEscan: ACVR2B / KINOMEscan: ADCK3 / KINOMEscan: ADCK4 / KINOMEscan: AKT1 / KINOMEscan: AKT3 / KINOMEscan: ALK / KINOMEscan: ARK5 / KINOMEscan: AURKA / KINOMEscan: AURKC / KINOMEscan: BIKE / KINOMEscan: BMPR1A / KINOMEscan: BMPR1B / KINOMEscan: BMX / KINOMEscan: BRK / KINOMEscan: BRSK1 / KINOMEscan: BRSK2 / KINOMEscan: CAMK1 / KINOMEscan: CAMK1D / KINOMEscan: CAMK1G / KINOMEscan: CAMK2A / KINOMEscan: CAMK2B / KINOMEscan: AAK1 / KINOMEscan: CAMK2D / KINOMEscan: CAMK2G / KINOMEscan: ABL1(F317I)-nonphosphorylated / KINOMEscan: ABL1(F317I)-phosphorylated / KINOMEscan: ABL1(F317L)-nonphosphorylated: unit: % Ctrl; conditions: Compound Concentration 10 µM
T2 construct: purchased KINOMEscan
T2 sequence (Q96D53 1-544): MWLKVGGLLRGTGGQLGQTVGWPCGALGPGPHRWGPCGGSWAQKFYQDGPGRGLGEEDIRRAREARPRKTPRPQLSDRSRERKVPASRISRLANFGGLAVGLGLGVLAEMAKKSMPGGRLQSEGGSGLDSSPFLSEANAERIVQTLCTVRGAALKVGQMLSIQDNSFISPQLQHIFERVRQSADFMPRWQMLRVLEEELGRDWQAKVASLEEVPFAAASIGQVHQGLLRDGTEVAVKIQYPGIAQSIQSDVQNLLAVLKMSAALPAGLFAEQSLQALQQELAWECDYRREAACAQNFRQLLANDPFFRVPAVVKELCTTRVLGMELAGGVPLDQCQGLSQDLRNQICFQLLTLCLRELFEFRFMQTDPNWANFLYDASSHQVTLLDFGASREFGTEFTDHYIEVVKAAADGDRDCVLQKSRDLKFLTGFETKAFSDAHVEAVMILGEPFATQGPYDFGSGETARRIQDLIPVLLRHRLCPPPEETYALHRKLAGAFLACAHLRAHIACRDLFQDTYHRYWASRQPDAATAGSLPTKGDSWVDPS
Excerpt: as §1

CCOc1cc(C(=O)N2CCC(N3CCN(C)CC3)CC2)ccc1Nc1ncc2c(n1)N(C1CCCC1)c1ccccc1C(=O)N2C [Compound 26]
KINOMEscan: PRKD3 (panel of 442 kinases [1]): 100
KINOMEscan: ADCK4 (panel of 442 kinases [2]): 100

COc1cc(C(=O)N2CCC(N3CCN(C)CC3)CC2)ccc1Nc1ncc2c(n1)N(C1CCCC1)c1ccccc1C(=O)N2C [Compound 25, 11-cyclopentyl-2-((2-methoxy-4-(4-(4-methylpiperazin-1-yl)piperidine-1-carbonyl)phenyl)amino)-5-methyl-5H-benzo[e]pyrimido[5,4-b][1,4]diazepin-6(11H)-one]
KINOMEscan: PRKD3 (panel of 442 kinases [1]): 100
KINOMEscan: ADCK4 (panel of 442 kinases [2]): 92

COc1cc(C(=O)N2CCC(N3CCN(C)CC3)CC2)ccc1Nc1ncc2c(n1)N1CCc3cccc(c31)C(=O)N2C [Compound 24]
KINOMEscan: PRKD3 (panel of 442 kinases [1]): 19
KINOMEscan: ADCK4 (panel of 442 kinases [2]): 81

COc1cc(C(=O)N2CCC(N3CCN(C)CC3)CC2)ccc1Nc1ncc2c(n1)N(C)c1ccccc1C(=O)N2C [15 (LRRK2-IN-1)]
KINOMEscan: PRKD3 (panel of 442 kinases [1]): 42
KINOMEscan: ADCK4 (panel of 442 kinases [2]): 94
